From patent US10959997B2, “Combined agent for cell therapy of corneal endothelial cell” (KYOTO PREFECTURAL PUBLIC UNIVERSITY CORPORATION, priority 2013, dated 2021)
Where a name gives a salt, the structure may show the parent alone. Read-outs that look alike come from different tables or passages of the source.

How the values were obtained:
[1] = system: type II myosin; conditions: enantiomer of blebbistatin; cited from earlier work
[2] = system: myosin light chain (MLC) phosphorylation; assay: Western blot of Rho-ROCK pathway activity (phospho myosin light chain); format: cell-based, cynomolgus monkey
Method: DMEM (Gibco-Invitrogen) to which Y-27632 was added such that the final concentration would be 10 μM and cultured monkey corneal endothelial cells were seeded. Over time, i.e., 0, 1, 3, and 24 hours thereafter, proteins extracted with RIPA buffer were subjected to electrophoresis with 7.5% polyacrylamide. DMEM (Gibco-Invitrogen) was used as a control. The separated protein was transcribed onto a PVDF membrane (PALL LIFE SCIENCE, catalog number: EH-2222). Blocking procedure was carried out by incubating a Tris buffered saline (10 mM Tris-HCl, pH 7.4, 100 mM NaCl) supplemented with 0.1% (vol/vol) polyethylene sorbitan monolaurate (Nacalai Tesque, catalog number: 28353-85) (TBS-T) and 5% non-fat dry milk (CELL SIGNALING, catalog number: 9999) and the blotted membrane for one hour. The membrane was then immersed in TBS-T supplemented with antibodies against Phospho Myosin Light Chain 2 (Thr18/Ser19) (CELL SIGNALING, catalog number: 3674), Phospho FAK (Y397) (D20B1) Rabbit mAb (CELL SIGNALING, catalog number: 8556), Phospho Paxillin (Tyr118) Antibody (CELL SIGNALING, catalog number: 2541), GAPDH (14C10) Rabbit mAb (CELL SIGNALING, catalog number: 2118) and diluted 1000-fold, and reacted for 1 hour at room temperature. […]

[3] = system: rabbit bullous keratopathy model; assay: Transplantation of cultured corneal endothelial cells in combination with inhibitor, injected into the anterior chamber; format: in vivo; conditions: for state of the anterior ocular section after transplantation (pictures): day 3, day 7, day 14
Method: In primary culture of rabbit corneal endothelial cells, a Descemet's membrane including an endothelial cell layer was detached from a corneal tissue and 0.5 ml of Accutase (catalog number: AT104, Innovative Cell Technologies) was used for each eye, and incubated at 37° C. by using a water bath. After 20 minutes, a culture medium was added and pipetting was performed. The sample was centrifuged at 1200 rpm for 3 minutes to remove the supernatant. A culture medium was then added to a precipitated corneal endothelial cell mass for admixing. The entire amount was seeded on a 12-well plate coated with FNC Coating Mix (catalog No.: 0407; Athena Enzyme Systems, Baltimore, Md., USA). DMEM (catalog No.: 12320; Gibco-Invitrogen), to which 10% FBS, 1% Penicillin-Streptomycin Mixed Solution (catalog number: 26252-94; Nacalai Tesque), and 2 ng/ml basic fibroblast growth factor, catalog number: 13256-029; bFGF; Invitrogen) were added, was used as a culture medium.
A medium was exchanged every other day. Subculture was performed when 50 to 80% confluence was reached. With respect to the subculturing method, cells were washed with Ca^2+Mg^2+-free PBS (PBS−; Nissui Pharmaceutical Co., Ltd., Tokyo, Japan), and 0.05% Trypsin-EDTA (catalog No.: 25300-054; Invitrogen) was added and incubated at 37° C. for 3 minutes. Cells were detached and collected from the plate. After the cells were centrifuged at 1500 rpm for 3 minutes, a culture medium was added to make a cell suspension. Cells were seeded on a plate coated with FNC Coating Mix at a density of 1:2-3.
Rabbit corneal endothelial cells were detached with a soft tapered needle (Inami, M-563S) to make a bullous keratopathy model. Subsequently, 5.0×10^5 cultured rabbit corneal endothelial cells were suspended in 200 μl of Dulbecco's Modified Eagle Medium (DMEM) with blebbistatin adjusted to a final concentration of 10 μM. The suspension was injected into the anterior chamber and the corneal surface was maintained in a face-down position for three hours. A group injected with 5.0×10^5 rabbit corneal endothelial cells suspended into 200 μl of Dulbecco's Modified Eagle Medium (DMEM) with Y-27632 adjusted to a final concentration of 100 μM in the anterior chamber, a group subjected only to scraping off of corneal endothelial cells, and a group injected with 5.0×10^5 rabbit corneal endothelial cells suspended in a 200 μl of Dulbecco's Modified Eagle Medium (DMEM) into the anterior chamber were used as comparison groups.
A rabbit bullous keratopathy model eye with the corneal endothelium scraped off was injected with 5.0×10^5 cultured rabbit corneal endothelial cells suspended in 200 μl of Dulbecco's Modified Eagle Medium (DMEM) with blebbistatin adjusted to a final concentration of 1 μM and 3 μM into the anterior chamber as in Example 3. […]

[4] = system: cultured monkey corneal endothelial cells; assay: Examination of number of adhering cells with CellTiter-Glo; format: cell-based, cynomolgus monkey
[5] = system: paxillin phosphorylation; assay: Western blot of adhesion-related molecules (phospho paxillin); format: cell-based, cynomolgus monkey
[6] = system: focal adhesion kinase (FAK) phosphorylation; format: cell-based, cynomolgus monkey
[7] = system: non-muscle myosin II; conditions: cited from earlier work
[8] = system: skeletal muscle myosin II; conditions: cited from earlier work
[9] = system: actin polymerization; conditions: cited from earlier work

For Cc1ccc2c(c1)C(=O)C1(O)CCN(c3ccccc3)C1=N2 (single isomer, unassigned; (+)) [(+) form], the “effect as myosin II-specific inhibitor” value [1] is given as “does not”.
With C[C@@H](N)[C@H]1CC[C@H](C(=O)Nc2ccncc2)CC1 [Y-27632, (R)-(+)-trans-(4-pyridyl)-4-(1-aminoethyl)-dihydrochloride cyclohexanecarboxamide monohydrate] the MLC phosphorylation ([2]; Y-27632 10 μM, 0, 1, 3 and 24 hours) was “suppresses”, the “state of the anterior ocular section after transplantation (pictures)” value ([3]; Y-27632 100 μM with 5.0×10^5 cells in 200 μl DMEM) was “excellent” and the “concentration at which efficacy is exhibited” value ([3]; animal models with bullous keratopathy) was 10 to 100 µM. For the same compound, the “number of adhering cells” value [4] was “significantly increased”, the phosphorylation of paxillin [5] was “phosphorylated at an early stage” and the “phosphorylation of FAK” value [6] was “phosphorylated at an early stage”.
In the case of Cc1ccc2c(c1)C(=O)[C@]1(O)CCN(c3ccccc3)C1=N2 [blebbistatin, (S)-(−)-Blebbistatin], the MLC phosphorylation activity ([2]; addition of blebbistatin, stated in the discussion) is reported as “suppression of the MLC phosphorylation activity”, the “concentration needed for therapy compared with Y-27632” value ([3]; blebbistatin 1 μM, 3 μM, 10 μM versus Y-27632 100 μM) is reported as “therapy was possible at a lower concentration relative to Y-27632” and the “state of the anterior ocular section after transplantation (pictures)” value ([3]; blebbistatin 10 μM with 5.0×10^5 cells in 200 μl DMEM) is reported as “excellent as with Y-27632”. The “number of adhering cells” value ([4]; blebbistatin 100 μM, three hours from seeding, in comparison to the control (DMEM)) was “significantly increased”, the phosphorylation of paxillin ([5]; blebbistatin 100 μM, 0, 1, 3 and 24 hours) was “phosphorylated at an early stage” and the “effect as myosin II-specific inhibitor” value [1] was “has an effect”.
In the case of CC(=O)C(C)=NO [BDM, 2,3-butanedione monoxime], the “inhibiting effect on non-muscle myosin II” value [7] is listed as “does not have an inhibiting effect”, the “action on skeletal muscle myosin II” value [8] is listed as “has action on skeletal muscle myosin II” and the “effect on actin polymerization” value [9] is listed as “inhibiting actin polymerization”.
